Results from patent US12678423B2, “Therapeutic agent for amyotrophic lateral sclerosis and composition for treatment” (KEIO UNIVERSITY, priority 2016, dated 2026).

Tests used:
Format in all cases: cell-based, human
[1] = tested on: motor neurons induced to differentiate from iPS cells derived from ALS patients (TDP-43-ALS) having a mutation in TDP-43; assay: Neurite length, TDP-43-ALS motor neurons (screening, Example I-8)
Protocol: For each differentiation-induced motor neuron in Example I-1, the changes over time in the neurite length were measured. A Bio station CT (Nikon Corp.) was used to measure the neurite length over time. FIG. 1 is a graph showing measurement results of changes over time in the neurite length. The vertical axis represents neurite length (relative value), and the horizontal axis represents the number of days of culturing from the start of differentiation induction.
(§1) Using the differentiation-induced motor neurons in Example I-1, drugs which cause the ALS phenotype to be restored were screened from existing drug libraries with the neurite length, ectopic localization of FUS protein, stress granule formation, LDH leakage ratio, CV-caspase 3-positive ratio, phosphorylated TDP-43 protein inclusion formation, and the like as indices.
(§2) As a result of the screening, ropinirole was found as a promising therapeutic agent for ALS. Tables 5 and 6 show the improvement ratio (%) in the ALS phenotype due to adding ropinirole to the medium. Here, ropinirole was added to the medium on days 35 to 40 from the start of the differentiation induction of each iPS cell. Here, it is assumed that days 35 to 40 from the start of differentiation induction correspond to the early stage of the ALS disease.
(§3) The improvement ratio (%) of the ALS phenotype was calculated by Equation (1).
(§4) [formula] [In Equation (1), A represents a measurement value of motor neurons induced to differentiate from iPS cells derived from ALS patients in the absence of ropinirole, and B represents a measurement value of motor neurons induced to differentiate from iPS cells derived from ALS patients in the presence of ropinirole, and C represents a measurement value of motor neurons induced to differentiate from iPS cells derived from healthy subjects in the absence of ropinirole.]
(§5) Subsequently, in the same manner as above, the efficacy in cases of administering lower concentrations of ropinirole was evaluated.
(§6) Each drug was added to the medium at a final concentration of 10 μM.

[2] = tested on: motor neurons induced to differentiate from iPS cells derived from ALS patients (FUS-ALS) having a mutation in FUS; assay: Stress granule formation (G3BP immunostaining), FUS-ALS motor neurons
Protocol: On day 40 from the start of differentiation induction, the formation of stress granules was examined using each differentiation-induced motor neuron in Example I-1. The detection of stress granules was performed by immunostaining with G3BP, which is a marker of stress granules.
as §1, §2, §3, §4, §5, §6

[3] = tested on: motor neurons induced to differentiate from iPS cells derived from SALS patients; assay: Stress granules, sporadic ALS model (Example III-4); settings: final concentration 1 μM, days 35 to 40, measured on day 40, FIG. 13
Source text: In the same manner as in Example I-1, iPS cells derived from sporadic ALS (may be referred to below as “SALS”) patients were differentiated into motor neurons. All the iPS cells used were derived from dermal fibroblasts. Below, each differentiated motor neuron is identified by the patient number from whom the neuron was derived.
In the same manner as in Example II-1, iPS cells derived from sporadic ALS (SALS) patients were induced to differentiate into motor neurons, and ropinirole with a final concentration of 1 μM was added to the medium. More specifically, for the period of days 35 to 40 from the start of differentiation induction, ropinirole having a final concentration of 1 μM was added to the medium. In addition, a group for which ropinirole was not added to the medium was prepared as a control. In addition, for comparison, iPS cells derived from healthy subjects were differentiated into motor neurons in the same manner as in Example I-1. No ropinirole was added to the medium of these motor neurons. As the iPS cells derived from a healthy subject, the same cells as used in Example I-1 were used.
Subsequently, on day 40 from the start of differentiation induction, the number of stress granules was measured for each motor neuron in the same manner as in Example I-7.
FIG. 13 is a graph showing the measurement result of the number of stress granules. […]

[4] = tested on: motor neurons induced to differentiate from iPS cells derived from ALS patients (TDP-43-ALS) having a mutation in TDP-43; assay: Neurite length in late stage ALS disease, TDP-43-ALS (Example I-9); settings: final concentration 1 μM, added days 50 to 62 from start of differentiation induction, FIG. 14
Protocol: The efficacy of ropinirole was evaluated in the same manner as in Example I-8, except that the timing of adding ropinirole was changed to days 50 to 62 from the start of the differentiation induction of each iPS cell. It is assumed that days 50 to 62 after the start of induction of differentiation correspond to the late stage of the ALS disease.
Specifically, ropinirole was added to a medium of motor neurons induced to differentiate from iPS cells derived from ALS patients (FUS-ALS) having a mutation in FUS and motor neurons induced to differentiate from iPS cells derived from ALS patients (TDP-43-ALS) having a mutation in TDP-43 and the changes over time in the neurite length were measured. The measurement of neurite length was carried out in the same manner as in Example I-2. Ropinirole was added to the medium at a final concentration of 1 μM.
FIG. 14(a) is a graph showing the results of measurement of the changes over time in the neurite length of each motor neuron. In FIG. 14(a), the vertical axis represents the neurite length (relative value), the horizontal axis represents the number of days of culturing from the start of differentiation induction, and “+ROPI” represents the result of adding ropinirole to the medium. In addition, FIG. 14(b) is a graph enlarging the boxed portion of the graph of FIG. 14(a). […]

[5] = final concentration 0.1 μM, added days 35 to 40
[6] = final concentration 1 μM, added days 35 to 40
[7] = final concentration 10 μM, added days 35 to 40

`CCCN(CCC)CCc1cccc2c1CC(=O)N2` [Ropinirole, 4-(2-di-n-propylaminoethyl)-2(3H)-indole] was tested, and the “Neurite length improvement ratio” value ([1]; final concentration 0.1 nM) was 12.1%, the “Neurite length improvement ratio” value ([1]; final concentration 1 nM) was 49.4% and the “Neurite length improvement ratio” value ([1]; final concentration 10 nM) was 52.3%. For the same compound, the “Neurite length improvement ratio” value [1, 5] was 50.4%, the “Neurite length improvement ratio” value [1, 6] was 75.3% and the “Neurite length improvement ratio” value [1, 7] was 77.2%. The “Stress granule formation improvement ratio” value ([2]; final concentration 0.1 nM) was 8.2%, the “Stress granule formation improvement ratio” value ([2]; final concentration 1 nM) was 23.2% and the “Stress granule formation improvement ratio” value ([2]; final concentration 10 nM) was 39.3%. For the same compound, the “Stress granule formation improvement ratio” value [2, 5] was 36.6%, the “Stress granule formation improvement ratio” value [2, 6] was 34.4% and the “Stress granule formation improvement ratio” value [2, 7] was 66.1%. For the same compound, the “Number of stress granules” value [3] was “significantly decreased” and the “Neurite length (changes over time), late stage” value [4] was “neuroprotective action (maintenance of neurite length)”.
